Results: patent publication US11376254B2, “Positive allosteric modulators of the muscarinic acetylcholine receptor M4” (Vanderbilt University, priority 2017, dated 2022)

How the values were obtained:
[1] = In vitro DMPK: rat fraction unbound in plasma; format: in vitro ADME; settings: read-out: Rat Fu (plasma)
Experimental: (§1) Compound 1 was tested in several in vitro assays to investigate both metabolism and pharmacokinetics. These assays were performed according to known methods as generally described in the following references: Conde-Ceide et al. ACS Med. Chem. Lett. 2015, 6, 716-720; Morris et al. J. Med. Chem. 2014, 57, 10192-10197; and Bubser et al. ACS Chem. Neurosci. 2014, 5, 920-942.

[2] = In vivo DMPK in rat (plasma clearance, brain:plasma distribution); settings: read-out: Rat CLp
Human M4 = biological target: T1, Human M4 (Homo sapiens, UniProt P08173); assay: mAChR M4 cell-based functional assay (calcium flux, potentiation of ACh EC20 response); design: Emax: dose or concentration left out as unconfirmed
T1 sequence (P08173 1-479): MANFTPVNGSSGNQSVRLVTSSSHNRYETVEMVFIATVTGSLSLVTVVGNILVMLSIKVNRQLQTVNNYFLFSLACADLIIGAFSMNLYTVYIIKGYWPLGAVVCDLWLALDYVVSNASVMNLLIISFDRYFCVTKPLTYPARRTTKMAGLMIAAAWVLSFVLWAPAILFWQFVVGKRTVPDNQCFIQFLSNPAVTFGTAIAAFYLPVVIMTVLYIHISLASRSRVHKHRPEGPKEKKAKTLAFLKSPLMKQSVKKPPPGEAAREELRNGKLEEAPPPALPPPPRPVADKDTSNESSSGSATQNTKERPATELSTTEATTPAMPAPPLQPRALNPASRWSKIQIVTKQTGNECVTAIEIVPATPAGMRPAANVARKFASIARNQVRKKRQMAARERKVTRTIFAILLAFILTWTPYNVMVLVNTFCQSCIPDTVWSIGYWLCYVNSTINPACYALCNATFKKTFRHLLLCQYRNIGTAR

[3] = In vitro DMPK: human predicted hepatic clearance; format: in vitro ADME
Experimental: as §1

[4] = In vitro DMPK: rat predicted hepatic clearance; format: in vitro ADME
Experimental: as §1

[5] = In vitro DMPK: rat fraction unbound in brain; format: in vitro ADME; settings: read-out: Rat Fu (brain)
Experimental: as §1

[6] = In vitro DMPK: human fraction unbound in plasma; format: in vitro ADME; settings: read-out: Human Fu (plasma)
Experimental: as §1

[7] = human, in vivo; cited from earlier work
[8] = without causing catalepsy; cited from earlier work
[9] = Alzheimer's disease patients; delusions, suspiciousness, vocal outbursts, hallucinations; cited from earlier work

SMILES | Emax (Human M4) | EC50 (Human M4) | other results
Cc1c(C(F)F)nnc2sc3c(NCc4ccc(C(C)(C)O)cc4)ncnc3c12 [Compound 1, 2-(4-(((3-(Difluoromethyl)-4-methylpyrimido[4′,5′:4,5]thieno[2,3-c]pyridazin-8-yl)amino)methyl)phenyl)propan-2-ol] | 98.7% | – | fraction unbound [1]: 0.012; clearance [2]: 2.67 mL/min/kg; Human Predicted CLhep (mL/min/kg) Method A ([3]; Method A (first line)): 6.69 mL/min/kg; Human Predicted CLhep (mL/min/kg) Method A ([3]; second line also printed as Method A): 0.34 mL/min/kg; Rat Predicted CLhep (mL/min/kg) Method A [4]: 19.1 mL/min/kg; fraction unbound [5]: 0.006; fraction unbound [6]: 0.01
COc1ccc(CNc2ncnc3c2sc2nnc(C(F)F)c(C)c23)cc1F [Compound 2, 3-(difluoromethyl)-N-(3-fluoro-4-methoxybenzyl)-4-methylpyrimido[4′,5′:4,5]thieno[2,3-c]pyridazin-8-amine] | 79.8% | 581 nM | –
Cc1c(C(F)F)nnc2sc3c(N4CCCC4)ncnc3c12 [Compound 3, 3-(difluoromethyl)-4-methyl-8-(pyrrolidin-1-yl)pyrimido[4′,5′:4,5]thieno[2,3-c]pyridazine] | 83.5% | 238 nM | –
Cc1c(C(F)F)nnc2sc3c(N4CC5(COC5)C4)ncnc3c12 [Compound 4, 6-(3-(difluoromethyl)-4-methylpyrimido[4′,5′:4,5]thieno[2,3-c]pyridazin-8-yl)-2-oxa-6-azaspiro[3.3]heptane] | 82.7% | 84.1 nM | –
Cc1c(C(F)F)nnc2sc3c(N4CC(CO)(CO)C4)ncnc3c12 [Compound 5, (1-(3-(difluoromethyl)-4-methylpyrimido[4′,5′:4,5]thieno[2,3-c]pyridazin-8-yl)azetidine-3,3-diyl)dimethanol] | 81.9% | 1060 nM | –
Cc1c(C(F)F)nnc2sc3c(N4CCOCC4)ncnc3c12 [Compound 6, 4-(3-(difluoromethyl)-4-methylpyrimido[4′,5′:4,5]thieno[2,3-c]pyridazin-8-yl)morpholine] | 72.2% | 572 nM | –
Nc1c2c(nc3ccccc13)CCCC2 [tacrine] | – | – | patients with elevated liver transaminases (hepatotoxicity) [7]: about 30%
CCCCCCOc1nsnc1C1=CCCN(C)C1 [xanomeline] | – | – | activity in animal models with profiles similar to known antipsychotic drugs [8]: active in animal models; effect on psychotic behavioral symptoms [9]: reduce psychotic behavioral symptoms

Further lines, with some results ahead:

Emax (Human M4) | EC50 (Human M4) | SMILES | other results
95.4% | 271 nM | Cc1c(C(F)F)nnc2sc3c(NC4CCCC4)ncnc3c12 [Compound 7, N-cyclopentyl-3-(difluoromethyl)-4-methylpyrimido[4′,5′:4,5]thieno[2,3-c]pyridazin-8-amine] | –
95.8% | 528 nM | [2H]C([2H])(Nc1ncnc2c1sc1nnc(C(F)F)c(C)c12)c1ccc(C(C)(C)O)cc1 [Compound 8, 2-(4-(((3-(difluoromethyl)-4-methylpyrimido[4′,5′:4,5]thieno[2,3-c]pyridazin-8-yl)amino)methyl-d2)phenyl)propan-2-ol] | –
95.5% | 809 nM | Cc1c(C(F)F)nnc2sc3c(NCc4ccc(C5(O)CCC5)cc4)ncnc3c12 [Compound 9, 1-(4-(((3-(difluoromethyl)-4-methylpyrimido[4′,5′:4,5]thieno[2,3-c]pyridazin-8-yl)amino)methyl)phenyl)cyclobutan-1-ol] | –
95.5% | 860 nM | Cc1c(C(F)F)nnc2sc3c(NCc4ccc(C(C)(O)C5CC5)cc4)ncnc3c12 (stereo not shown) [Compound 10, 1-cyclopropyl-1-(4-(((3-(difluoromethyl)-4-methylpyrimido[4′,5′:4,5]thieno[2,3-c]pyridazin-8-yl)amino)methyl)phenyl)ethan-1-ol] | –
68.7% | > 10000 nM | Cc1ccccc1OC1CCN(c2ncnc3c2sc2nnc(C(F)F)c(C)c23)C1 (stereo not shown) [Compound 11, 3-(difluoromethyl)-4-methyl-8-(3-(o-tolyloxy)pyrrolidin-1-yl)pyrimido[4′,5′:4,5]thieno[2,3-c]pyridazine] | –
